The source made the active and inactive calls. The calls are words filed in the database; no cut-off is given here.
Tests used:
[1] = tested on: MDA-MB-231; assay: Cytotoxicity against ERalpha and ERbeta-deficient human MDA-MB-231 cells assessed as growth inhibition after 72 hrs by MTT assay; format: functional, cell-based; settings: MDA-MB-231, 72 h
[2] = tested on: MCF7; assay: Cytotoxicity against human MCF7 cells expressing ERalpha and ERbeta assessed as growth inhibition after 72 hrs by MTT assay; format: functional, cell-based; settings: MCF7, 72 h
[3] = biological target: Estrogen receptor beta (Homo sapiens) (UniProt Q92731); assay: Agonist activity at Gal4 DBD-fused human ERbeta LBD expressed in HEK293T cells at 10 uM after 40 hrs by luciferase reporter gene assay; format: cell-based; settings: HEK-293T
[4] = biological target: T1, Histone deacetylase 8 (Homo sapiens, UniProt Q9BY41); assay: Inhibition of human recombinant HDAC8 after 30 mins by fluorescence assay
T1 sequence (Q9BY41 whole entry): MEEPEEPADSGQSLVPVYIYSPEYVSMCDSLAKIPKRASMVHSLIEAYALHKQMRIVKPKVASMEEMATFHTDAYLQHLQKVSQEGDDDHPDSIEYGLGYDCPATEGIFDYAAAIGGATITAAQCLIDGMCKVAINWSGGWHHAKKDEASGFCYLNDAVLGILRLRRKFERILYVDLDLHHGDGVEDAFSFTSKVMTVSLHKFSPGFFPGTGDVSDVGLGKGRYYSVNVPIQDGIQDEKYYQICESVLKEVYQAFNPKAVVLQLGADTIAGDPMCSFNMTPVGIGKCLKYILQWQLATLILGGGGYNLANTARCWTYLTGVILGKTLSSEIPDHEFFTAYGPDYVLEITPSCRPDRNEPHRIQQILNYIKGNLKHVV

[5] = biological target: T2, Protein deacetylase HDAC6 (Homo sapiens, UniProt Q9UBN7); assay: Inhibition of human recombinant HDAC6 after 30 mins by fluorescence assay
T2 sequence (Q9UBN7 whole entry): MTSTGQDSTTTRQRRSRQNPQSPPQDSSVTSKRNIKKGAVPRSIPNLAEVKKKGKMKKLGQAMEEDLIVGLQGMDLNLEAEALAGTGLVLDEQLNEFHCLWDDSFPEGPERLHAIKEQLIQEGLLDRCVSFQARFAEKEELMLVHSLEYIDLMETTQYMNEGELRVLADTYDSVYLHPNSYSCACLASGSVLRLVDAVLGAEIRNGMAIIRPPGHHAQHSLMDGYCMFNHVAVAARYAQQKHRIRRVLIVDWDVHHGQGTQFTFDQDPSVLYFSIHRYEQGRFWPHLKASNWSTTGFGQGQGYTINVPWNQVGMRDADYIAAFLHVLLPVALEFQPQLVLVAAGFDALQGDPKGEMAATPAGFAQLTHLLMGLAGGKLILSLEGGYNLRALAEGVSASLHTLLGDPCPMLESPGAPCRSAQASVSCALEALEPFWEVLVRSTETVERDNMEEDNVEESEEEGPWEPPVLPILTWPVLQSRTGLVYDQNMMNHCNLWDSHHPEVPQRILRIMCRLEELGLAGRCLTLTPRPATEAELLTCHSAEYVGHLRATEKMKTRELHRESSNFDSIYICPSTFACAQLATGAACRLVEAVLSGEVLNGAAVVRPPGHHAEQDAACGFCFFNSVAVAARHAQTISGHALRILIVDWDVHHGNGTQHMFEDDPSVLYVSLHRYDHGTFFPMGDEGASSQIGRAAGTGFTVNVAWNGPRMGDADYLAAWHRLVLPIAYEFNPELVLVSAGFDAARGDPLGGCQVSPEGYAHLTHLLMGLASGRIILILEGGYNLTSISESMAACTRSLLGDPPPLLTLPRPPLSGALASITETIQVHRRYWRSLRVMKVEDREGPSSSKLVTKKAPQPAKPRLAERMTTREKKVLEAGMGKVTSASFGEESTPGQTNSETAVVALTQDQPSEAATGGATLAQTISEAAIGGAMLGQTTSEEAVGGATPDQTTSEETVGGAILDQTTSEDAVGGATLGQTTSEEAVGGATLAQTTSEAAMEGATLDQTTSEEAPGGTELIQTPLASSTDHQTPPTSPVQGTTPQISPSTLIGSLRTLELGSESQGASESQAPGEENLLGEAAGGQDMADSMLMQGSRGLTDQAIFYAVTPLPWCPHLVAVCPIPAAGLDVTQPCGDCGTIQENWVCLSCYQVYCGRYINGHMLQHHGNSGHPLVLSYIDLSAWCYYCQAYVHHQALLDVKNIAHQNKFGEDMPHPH

[6] = biological target: Histone deacetylase 1 (Homo sapiens, UniProt Q13547); assay: Inhibition of human recombinant HDAC1 after 30 mins by fluorescence assay
[7] = Therapeutic index, ratio of IC50 for african green monkey Vero cells to IC50 for human MCF7 cells expressing ERalpha and ERbeta; settings: Vero cells versus MCF7 cells expressing ERalpha and ERbeta
[8] = tested on: DU-145; assay: Cytotoxicity against ERalpha-deficient human DU145 cells expressing ERbeta assessed as growth inhibition after 72 hrs by MTT assay; format: functional, cell-based; settings: DU-145, 72 h
[9] = biological target: T3, Estrogen receptor (Homo sapiens, UniProt P03372); assay: Antagonist activity at Gal4 DBD-fused human ERalpha LBD expressed in HEK293T cells assessed as inhibition of estradiol-induced transcriptional activation after 20 hrs by luciferase reporter gene assay; format: cell-based, HEK-293T
T3 sequence (P03372 whole entry): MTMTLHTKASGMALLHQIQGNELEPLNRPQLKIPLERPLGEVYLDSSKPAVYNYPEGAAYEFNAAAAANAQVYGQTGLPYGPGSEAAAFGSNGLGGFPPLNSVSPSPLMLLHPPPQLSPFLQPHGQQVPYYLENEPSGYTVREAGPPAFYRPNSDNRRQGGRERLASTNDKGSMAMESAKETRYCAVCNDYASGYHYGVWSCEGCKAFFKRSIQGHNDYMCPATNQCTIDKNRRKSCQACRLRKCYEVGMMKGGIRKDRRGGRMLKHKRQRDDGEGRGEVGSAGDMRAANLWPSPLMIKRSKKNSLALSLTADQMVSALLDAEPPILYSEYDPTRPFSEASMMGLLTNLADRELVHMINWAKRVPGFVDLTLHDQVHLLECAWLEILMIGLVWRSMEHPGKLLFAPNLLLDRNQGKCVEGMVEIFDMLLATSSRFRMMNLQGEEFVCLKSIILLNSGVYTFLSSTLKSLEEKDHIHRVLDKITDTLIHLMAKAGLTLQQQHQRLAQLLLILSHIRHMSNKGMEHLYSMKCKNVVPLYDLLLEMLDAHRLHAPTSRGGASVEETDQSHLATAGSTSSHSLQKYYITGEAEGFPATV

[10] = tested on: Vero; assay: Cytotoxicity against african green monkey Vero cells assessed as growth inhibition after 72 hrs by MTT assay; format: ADME, cell-based; settings: Chlorocebus sabaeus
[11] = tested on: MCF7; assay: Ratio of tamoxifen IC50 to compound IC50 for human MCF7 cells expressing ERalpha and ERbeta; format: functional

Chain of Estrogen receptor beta (Homo sapiens) (Q92731 whole entry, the tested form may be a part): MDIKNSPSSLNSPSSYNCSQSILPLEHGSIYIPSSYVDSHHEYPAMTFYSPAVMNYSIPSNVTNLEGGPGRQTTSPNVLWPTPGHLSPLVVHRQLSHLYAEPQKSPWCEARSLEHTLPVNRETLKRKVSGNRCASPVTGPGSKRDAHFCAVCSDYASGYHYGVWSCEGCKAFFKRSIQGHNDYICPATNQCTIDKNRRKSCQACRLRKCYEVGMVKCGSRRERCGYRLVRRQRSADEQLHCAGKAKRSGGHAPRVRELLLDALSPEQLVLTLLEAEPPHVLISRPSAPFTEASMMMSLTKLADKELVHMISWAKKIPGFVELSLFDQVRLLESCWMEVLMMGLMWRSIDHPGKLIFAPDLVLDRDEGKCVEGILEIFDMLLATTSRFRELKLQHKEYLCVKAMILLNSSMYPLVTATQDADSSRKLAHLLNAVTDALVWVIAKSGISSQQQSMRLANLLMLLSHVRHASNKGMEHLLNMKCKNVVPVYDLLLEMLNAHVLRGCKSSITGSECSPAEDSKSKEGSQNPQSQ
Chain of Histone deacetylase 1 (Q13547 whole entry): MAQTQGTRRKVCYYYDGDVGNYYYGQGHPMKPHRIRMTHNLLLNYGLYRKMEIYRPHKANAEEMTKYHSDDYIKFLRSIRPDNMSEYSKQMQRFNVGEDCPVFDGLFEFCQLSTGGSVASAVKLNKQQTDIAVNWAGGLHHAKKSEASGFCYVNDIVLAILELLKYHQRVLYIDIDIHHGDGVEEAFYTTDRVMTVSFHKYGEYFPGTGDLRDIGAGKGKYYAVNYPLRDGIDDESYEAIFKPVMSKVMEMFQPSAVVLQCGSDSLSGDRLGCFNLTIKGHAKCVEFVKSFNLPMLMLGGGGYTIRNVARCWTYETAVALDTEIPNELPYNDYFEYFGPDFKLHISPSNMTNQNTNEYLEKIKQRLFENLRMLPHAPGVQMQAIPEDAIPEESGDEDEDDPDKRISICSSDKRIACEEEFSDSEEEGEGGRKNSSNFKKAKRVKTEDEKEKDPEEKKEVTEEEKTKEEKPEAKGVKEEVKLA

| SMILES | IC50 [1] [µM] | IC50 [2] [µM] | Activity [3] | IC50 [4] [µM] | IC50 [5] [µM] | IC50 [6] [µM] | selectivity ratio [7] | IC50 [8] [µM] | IC50 [9] [µM] | IC50 [10] [µM] | Ratio IC50 [11] |
| --- | --- | --- | --- | --- | --- | --- | --- | --- | --- | --- | --- |
| C[C@]12CC[C@@H]3c4ccc(O)cc4CC[C@H]3[C@@H]1CC[C@@]2(O)c1cn(CCCC(=O)NO)nn1 | 28.4 | 22 | Active | 11 | 0.008 | 0.015 | > 1.82 |  |  |  |  |
| C[C@]12CC[C@@H]3c4ccc(O)cc4CC[C@H]3[C@@H]1CC[C@@]2(O)c1cn(CCCCCCC(=O)NO)nn1 | 14.1 | 37.3 | Active | 0.45 | 0.013 | 0.028 |  | 27 |  |  |  |
| C[C@]12CC[C@@H]3c4ccc(O)cc4CC[C@H]3[C@@H]1CC[C@@]2(O)c1cn(CCCCCCCC(=O)NO)nn1 | 33.9 |  | Active | 20 | 1.3 | 9 |  |  |  |  |  |
| C#C[C@]1(O)CC[C@H]2[C@@H]3CCc4cc(O)ccc4[C@H]3CC[C@@]21C [ETHINYL ESTRADIOL] | 32.9 |  |  |  |  |  |  |  |  |  |  |
| C[C@]12CC[C@@H]3c4ccc(O)cc4CC[C@H]3[C@@H]1CC[C@@]2(O)c1cn(CCCCCC(=O)NO)nn1 | 22.6 |  | Active | 4 | 0.032 | 0.075 |  | 26.9 |  |  |  |
| CC(O)(CS(=O)(=O)c1ccc(F)cc1)C(=O)Nc1ccc(C#N)c(C(F)(F)F)c1 (configuration not stated) [BICALUTAMIDE] |  |  |  |  |  |  |  | 18 |  |  |  |
| C[C@]12CC[C@@H]3c4ccc(O)cc4CC[C@H]3[C@@H]1CC[C@@]2(O)c1cn(CCCCC(=O)NO)nn1 |  |  | Active | 5 | 0.14 | 0.4 |  |  |  |  |  |
| CC/C(=C(\c1ccccc1)c1ccc(OCCN(C)Cc2ccc(NC(=O)CCCCCCC(=O)NO)cc2)cc1)c1ccccc1 | 8.1 | 3.8 |  |  | 0.221 | 2.7 | 0.95 | 14.1 | 0.127 | 3.6 | 4 |
| CC/C(=C(\c1ccccc1)c1ccc(OCCN(C)C)cc1)c1ccccc1 [TAMOXIFEN] | 17 | 15.6 |  |  |  |  |  |  |  | 15.9 |  |
| CC/C(=C(\c1ccccc1)c1ccc(OCCN(C)Cc2ccc(-c3cn(CCCCCC(=O)NO)nn3)cc2)cc1)c1ccccc1 | 10 | 7.2 |  |  | 0.567 | 0.524 | 1.26 | 20.6 | 0.248 | 9.1 | 2 |
